Experiments:
[1] = test system: experimental autoimmune encephalomyelitis (EAE); assay: EAE (multiple sclerosis model) neural symptom evaluation after intraspinal administration; format: in vivo, Lewis rats; details: for clinical score (EAE grade): Day 13 after antigen inoculation
K562 [2] = assay: Cell viability by Rhodamine 123 staining after heat treatment; format: cell-based, human; details: 20 minutes at 43°C (heat treatment) followed by 60 minutes at 37°C, HA4 100 ng/ml
Protocol: In this example, effect of the inventive pharmaceutical agent on cell viability was measured using Rhodamine 123. […] Accordingly, the degree of the staining with Rhodamine 123 serves as an index of the mitochondrial activity, thus the index of the cellular activity (see, non-patent reference 2).
In this example, a K562 (referred to as human erythroleukemia cell or human erythroblastoid leukemia cell) was used. The K562 was purchased from RIKEN, Japan.
In this example relating to preparation of test substance, HA4 was prepared at 100 ng/ml. Specifically, HA4 was prepared by the method of Tawada et al. (Tawada A, Masa T, Oonuki Y, Watanabe A, Matsuzaki Y, Asari A. Large-scale preparation, purification and characterization of hyaluronan oligosaccharides from 4-mers to 52-mers. Glycobiology, 2002; 12(7):421-6) and the concentration was adjusted using a physiological saline.
First, the K562 was incubated under the condition described below. The culture medium for the K562 was an RPMI-1640 medium. In this example, the K562 was incubated in Groups 1 to 3 shown below. Each group was cultured under the condition described below. […]
The K562 after washing was inoculated at 1×10^4 cells/ml in a 96-well plate and a photograph was taken using a fluorescent microscope (Nikon) . The image was sent to anAdobe Photoshop (Adobe Systems) where the fluorescent intensity of a cell was measured.

K562 [3] = assay: DNA chip gene expression analysis, cell viability-related genes (Example 3); format: cell-based, human; details: 42°C 20 minutes then 37°C 30 minutes, HA4 10 ng/ml
Protocol: First, the K562 was incubated in Groups 1 and 2 in the […] described above. The both groups were incubated at 42°C for 20 minutes followed by 37°C for 30 minutes. The medium of Group 2 was supplemented with HA4 (10 ng/ml).
(§1) After the incubation, the medium was removed by centrifugation at 1000 rpm. The obtained cells were stored in a deep freezer at -60°C. From the cells thus stored, RNA was extracted according to a standard method. The extracted RNA was subjected to the DNA chip to analyze gene expressions. The DNA chip gene expression analysis was subtracted to DNA CHIP Research Inc. Specifically, the trade name: AceGene Human Oligo Chip 30K 1 Chip Version manufactured by DNACHIP Research Inc. was employed.

K562 [4] = assay: DNA chip gene expression analysis, cytokine- and chemokine-associated genes (Example 4); format: cell-based, human; details: 42°C 20 minutes then 37°C 30 minutes, HA4 10 ng/ml
Protocol: Experimental method: First, the K562 was incubated in Groups 1 and 2 in the RPMI medium described above. The both groups were incubated at 42°C for 20 minutes followed by 37°C for 30 minutes. The medium of Group 2 was supplemented with HA4 (10 ng/ml).
as §1, with “analyze the” for “analyze”, “expression.” for “expressions.”, “DNA CHIP” for “DNACHIP”

U937 cell [5] = assay: Cytokine production under LPS stimulation, cytokine antibody array; format: cell-based, human; details: LPS 100 ng/ml, HA4 100 ng/ml, 24 hours
Protocol: (§2) • 2. Cell: U937 cell (human monocyte line), purchased from Dainipon Sumitomo Seiyaku. • 3. Culture medium: RPMI medium (containing 10% FBS). • 4. LPS E.coli, 0111B4, Chemicon.
(§3) An U937 cell was disseminated in a 2 ml aliquot in a 6-well microplate at 5×10^5 cell/ml, supplemented with an LPS at a final concentration of 100 or 1000 ng/ml, and then incubated for 24 hours with 5% CO2 at 37°C in the presence or absence of HA4 (100 ng/ml) . The culture supernatant was centrifuged at 3000 rpm for 5 minutes to obtain a test substance. A 1 ml aliquot of the recovered supernatant was subjected to Human Cytokine Antibody array (Raybio) using an ELISA (ENDOGEN) to detect the production of various cytokines.
A 2 ml aliquot of a blocking buffer was added to a membrane blotted with an antibody, which was then shaken for 30 minutes. The blocking buffer was removed, and a 1 ml aliquot of the culture supernatant was added and shaken at room temperature for 2 hours, washed 5 times, and then admixed with a primary antibody solution. After agitating at room temperature for 1.5 hours followed by washing 5 times, a secondary antibody solution was added and agitated overnight at 4°C. After washing 5 times, a chemiluminescence was allowed to develop and photographed by a Polaroid. The photograph was scanned to obtain its digital data which were subjected to an Image J to measure the luminescent intensity. The ratio based on the luminescent intensity of an internal standard placed in 6 positions in the membrane was calculated. In addition, a relative level (%) based on the expression level in a non-treatment group (NT) being 100 was calculated.

U937 cell [6] = assay: IL-6 production under LPS stimulation, ELISA; format: cell-based, human; details: LPS 100 ng/ml, HA4 100 ng/ml, 24 hours
Protocol: as §2, §3
To a microplate, 50 µl of a biotinylated antibody solution and 50 µl of the culture supernatant were added, and allowed to stand at room temperature for 2 hours. After washing with a washing buffer three times, 100 µl of a streptoavidin-HRP solution was added, allowed to stand at room temperature for 30 minutes, and washed with the washing buffer three times. A TMB was added, allowed to stand for at room temperature 30 minutes, and then a quencher was added to stop the reaction and the absorbance at 450 nm was measured (reference: 562 nm). The IL-6 concentration (pg/ml) was calculated based on the standard solutions measured in parallel.

cerebrospinal tissue = assay: DNA array analysis of cerebrospinal tissue of EAE model animals; format: in vivo, Lewis rats; details: Day 14, intrathecal continuous administration 6 µg/day immediately after inoculation of antigen
[7] = Cytotoxicity (general statement); details: at a dose exhibiting a biological activity of a pharmaceutical
[8] = intraspinal continuous administration immediately after inoculation, 6 µg/day, 22 Days
[9] = intraspinal single administration after onset of disease, 60 µg

Substance: tetrasaccharide hyaluronan [HA4]
- clinical score (EAE grade) ([1]; intraspinal continuous administration from onset of disease, 6 µg/day, 11 Days): 1.5 ± 1.0
- clinical score (EAE grade) [1, 8]: 0.2 ± 0.41
- clinical score (EAE grade) [1, 9]: 1.8 ± 0.5
- cases developing the disease [1, 8]: 1/6
- diseased period [1, 9]: 5.0 ± 1.5 days
- Rhodamine 123 staining performance (fluorescent intensity) (K562 [2]): inhibited such a reduction
- HAA+/- ratio (K562 [3]; gene Caspase 2): 0.27
- HAA+/- ratio (K562 [3]; gene DNAJ2): 0.34
- HAA+/- ratio (K562 [3]; gene Granzyme H): 0.38
- HAA+/- ratio (K562 [3]; gene STK17b (DARK2)): 0.09
- HAA+/- ratio (K562 [3]; gene TAF9L): 0.43
- HAA+/- ratio (K562 [3]; gene dnaj (hsp40) homolog): 2.62
- HAA+/- ratio (K562 [3]; gene pawr (Par-4)): 0.45
- HA4(+)/HA4(-) ratio (K562 [4]; gene CCL28): 0.32
- HA4(+)/HA4(-) ratio (K562 [4]; gene IFN-γ): 0.11
- HA4(+)/HA4(-) ratio (K562 [4]; gene IFN-ω1): 0.5
- HA4(+)/HA4(-) ratio (K562 [4]; gene IL-1β): 0.36
- HA4(+)/HA4(-) ratio (K562 [4]; gene IL-5): 0.28
- HA4(+)/HA4(-) ratio (K562 [4]; gene IL-17b): 0.31
- HA4(+)/HA4(-) ratio (K562 [4]; gene IL-18RAP): 0.32
- HA4(+)/HA4(-) ratio (K562 [4]; gene Mig(CXCL9)): 0.11
- production of IL-1α (U937 cell [5]): reduction
- production of IL-1β (U937 cell [5]): reduction
- production of IL-6 (U937 cell [5]): reduction
- production of TGF-β (U937 cell [5]): reduction
- production of TNF-α (U937 cell [5]): reduction
- production of TNF-β (U937 cell [5]): reduction
- production of IL-6 (U937 cell [6]): reduction
- Expression level ratio (HA/physiological saline) (cerebrospinal tissue; Decoy TRAIL receptor without death domain): 2.0
- Expression level ratio (HA/physiological saline) (cerebrospinal tissue; Fibroblast growth factor receptor substrate 2): 2.3
- Expression level ratio (HA/physiological saline) (cerebrospinal tissue; Transthyretin): 0.38
- cytotoxicity [7]: almost or completely no cytotoxicity

From EP1767211B1, “Pharmaceutical agent containing hyaluronan as an active ingredient” (Glycoscience Laboratories, Inc., priority 2005, dated 2007)
